# Assay results as given in PMC8049054, “Systematic Assessment of Fragment Identification for Multitarget Drug Design” (Chemmedchem, 2021).
# pKd: −log10 of the molar value.
# Target: T1, LTA4H (Homo sapiens, UniProt P09960)
# T1 construct: made in house; host or cells: E. coli BL21 (DE3)
# T1 sequence (P09960 1-611): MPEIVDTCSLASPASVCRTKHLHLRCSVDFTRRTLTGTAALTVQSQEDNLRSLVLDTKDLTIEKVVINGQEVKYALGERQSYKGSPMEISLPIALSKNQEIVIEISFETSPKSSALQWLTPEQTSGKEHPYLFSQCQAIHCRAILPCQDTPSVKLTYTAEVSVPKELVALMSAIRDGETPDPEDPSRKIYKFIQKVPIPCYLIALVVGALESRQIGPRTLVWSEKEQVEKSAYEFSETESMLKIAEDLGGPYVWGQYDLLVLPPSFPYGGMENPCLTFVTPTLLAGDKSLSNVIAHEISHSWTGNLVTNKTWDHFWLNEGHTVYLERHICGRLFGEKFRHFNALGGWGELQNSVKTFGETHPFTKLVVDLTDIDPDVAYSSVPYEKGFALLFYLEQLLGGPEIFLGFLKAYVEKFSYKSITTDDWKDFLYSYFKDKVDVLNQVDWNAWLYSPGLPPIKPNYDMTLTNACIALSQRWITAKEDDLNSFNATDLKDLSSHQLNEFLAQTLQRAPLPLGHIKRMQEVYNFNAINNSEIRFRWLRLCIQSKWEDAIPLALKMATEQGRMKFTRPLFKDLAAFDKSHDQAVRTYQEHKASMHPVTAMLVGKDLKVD
# Test: ITC measurement LTA4H
# Format: binding
# Settings: 25 °C, read-out: LTA4H K d
row,Compound,pKd
1,Oc1ccc(-c2ccc(F)cc2F)cc1 [Compound 9],5.28
2,Fc1ccc(-c2c[nH]c3ccccc23)cc1 [Compound 10],5.77
